Assay results reported in US7041706B2, “Method for treating crohn's disease” (priority 2002, dated 2006).

Tested on: Crohn's Disease (CD)
Assay: Oral limonene regimen in two patients suffering from Crohn's Disease (case reports, Examples 2 and 3)
Details: for anal bleeding under prior medication regimen: Example 3 subject before limonene, combined regimen of six tablets ASACOL (mesalamine) daily and two 50 mg tablets IMURAN (azathioprine) daily
Procedure: As used herein, “treatment” shall mean temporary or permanent alleviation or elimination of CD symptoms and/or intestinal damage.
A preferred adult dose of limonene is about 400 to 1,000 milligrams, more preferably 1,000 mg, administered once daily, typically for a period of 10 to 30 days. Other dosing regimens, such as every other day and twice weekly regimens, may be desired, depending upon the patient. In fact, it will be appreciated by those of ordinary skill in the art that the amount of limonene, dosing schedule, and duration of treatment may vary depending upon the individual's age, weight, and severity of the CD.
Upon diagnosis, the patient underwent a partial small bowel surgical resection wherein about one foot of intestine and appendix were surgically removed.
To alleviate the symptoms of CD, the subject was taking the following prescriptions and over-the-counter medications: 1 Cortisone injection every six months; 1 tablet of 2.5 mg diphenoxylate/0.025 mg atropine every 8 hours as needed; twelve tablets (2.0 mg each) of IMODIUM (loperamide) every day as needed.
Prior to treatment with the limonene regimen, the subject discontinued taking their prescription and OTC medications for CD except for one cortisone injection in April 2001 and about 1 to 2 tablets of IMODIUM (lopcramide) per month. They began taking 1000 mg d-limonene (98%) on March 2001. […] The subject then began taking 400 mg of d-limonene once a week for two weeks, followed by 400-mg d-limonene twice a week for three weeks. The subject was then put on a regimen of 1000 mg d-limonene take once a week for three weeks, increasing to 1000 mg twice a week for three weeks. After that series, the subject began taking 1000 mg d-limonene every other day for three weeks. The subject continued to take 1000 mg d-limonene twice a week for maintenance.
A subject diagnosed with CD in November 1999 after undergoing a colonoscopy.
The subject began treatment with the inventive limonene method in January 2001, taking 1000 mg of d-limonene daily. […] For maintenance therapy, the patient continued to take three 1000 mg capsules of d-limonene per week.

Structure (SMILES)	anal bleeding under prior medication regimen	adverse effect on first dosing (Example 2, subject with CD, 1000 mg d-limonene (98%) oral, regimen discontinued immediately)	anal bleeding (Example 2, subject with CD, during treatment, when taking 1000 mg d-limonene)	abdominal pain or cramping (Example 2 subject, during maintenance, 1000 mg d-limonene twice a week)	normal stools per day (Example 2 subject, during maintenance, 1000 mg d-limonene twice a week, about ten stools/day before treatment)	anal bleeding (Example 3, subject with CD, about seven days after start of 1000 mg d-limonene daily)	stools per day (Example 3, subject with CD, about seven days after start of 1000 mg d-limonene daily, ten stools/day before)
Cn1cnc([N+](=O)[O-])c1Sc1ncnc2nc[nH]c12 [IMURAN, azathioprine, reference compound]	bleeding ceased for about six to eight months, and then reoccurred	–	–	–	–	–	–
Nc1ccc(O)c(C(=O)O)c1 [ASACOL, mesalamine, reference compound]	bleeding ceased for about six to eight months, and then reoccurred	–	–	–	–	–	–
C=C(C)[C@H]1CC=C(C)CC1 [d-limonene]	–	severe acid reflux	stopped almost immediately	no abdominal pain or cramping	1 to 2 times a day	no anal bleeding	1–2 stools per day
